Data as given in patent US20240173332A1, “BENZO[…] TREATING OR PREVENTING RESPIRATORY SYNCYTIAL VIRUS INFECTION” (Pfizer Inc., priority 2021, published 2024).
Structures can show the parent of a compound that is named as a salt. Where two headings read alike, the source gives them in different places.

Assays:
RSV A2 = experiment: RSV plaque reduction assay in Hep-G2 cells; format: cell-based, respiratory syncytial virus (RSV); conditions: Hep-G2 cells, RSV A2, 2 days, mean of at least two experiments, read-out: RSV A2 Plaque EC50
Experimental: Compounds were subjected to RSV plaque reduction assays according to the following protocol. Plaque EC50 and cell toxicity CC50 values are a mean of at least two experiments and figures are rounded to whole units.
Hep-G2 cells (ECACC, 85011430) were passaged in flasks and seeded in 24-well plates in DMEM containing antibiotics and supplemented with 10% FBS. During inoculation and subsequent incubation, cells were cultured in DMEM containing 2% FBS. 100 plaque forming unit/well of RSV (RSV A2 ECACC, 0709161v) was mixed with eight serial dilutions of compound. Subsequently, 100 μL of the virus/compound mixtures was added to confluent Hep-G2 cell monolayers. The cells and virus/compound mixtures were incubated at 37° C. in a humidified 5% CO2 incubator for 2 h prior to removal of the inoculum and addition of 1 mL of overlay (DMEM containing 2% FBS and 0.8% CMC) containing compound dilutions. The cells and were incubated at 37° C. in a humidified 5% CO2 incubator for 2 days.
Cells were washed with PBS before adding 75/25% v/v EtOH/MeOH, for 3 min. Fixative was removed and plates were washed with PBS. A pre-titrated amount of the primary antibody was added in 200 μL PBS/2% milk powder, and plates incubated for 90 min at 37° C. The plates were washed 3 times with PBS/0.05% Tween20 before addition of rabbit anti-goat horse radish peroxidase in 200 μL PBS/2% milk powder, and incubated for 1 h at 37° C. Following three wash steps with PBS/0.05% Tween20, 200 μL ready-to-use TrueBlue was added and plates were incubated at rt for 10-15 min before washing with water. After removal of water, plates were air-dried in the dark. Plates were scanned and analysed using the Immunospot S6 Macro analyser, which is equipped with BioSpot analysis software for counting immunostained plaques (virospots). Plaque counts were used to calculate % infection relative to the mean of the plaque count in the virus control wells for RSV. The EC50 value was calculated as 50% reduction in signal, respectively, by interpolation of inhibition curves fitted with a 4-parameter nonlinear regression with a variable slope in Dotmatics. Plaque EC50 and cell toxicity CC50 values are a mean of at least two experiments and figures are rounded to whole units.

Hep-G2 cells = experiment: Cell cytotoxicity CC50; format: cell-based; conditions: mean of at least two experiments unless (n = 1)
[1] = Liver microsomal stability, rat; format: in vitro ADME; conditions: 1 μM compound, NADPH; for half-life at 1 μM: pooled liver microsomes, pH 7.4, 0.5 mg/mL protein, read-out: Liver Microsomal Stability t1/2
Experimental: (§1) Compounds were subjected to the following assays to investigate liver microsomal stability and hepatocyte stability.
(§2) Pooled liver microsomes were purchased from a reputable commercial supplier and stored at −80° C. prior to use. Microsomes (final protein concentration 0.5 mg/mL), 0.1 M phosphate buffer pH 7.4 and test compound (final substrate concentration 1 μM; final DMSO concentration 0.25%) were pre-incubated at 37° C. prior to the addition of NADPH (final concentration 1 mM) to initiate the reaction. The final incubation volume was 50 μL. A control incubation was included for each compound tested where 0.1 M phosphate buffer pH 7.4 was added instead of NADPH (minus NADPH). Two control compounds were included with each species. All incubations were performed singularly for each test compound. Each compound was incubated for 0, 5, 15, 30 and 45 min. The control (minus NADPH) was incubated for 45 min only. The reactions were stopped by transferring incubate into acetonitrile at the appropriate time points, in a 1:3 ratio. The termination plates are centrifuged at 3,000 rpm for 20 min at 4° C. to precipitate the protein. Following protein precipitation, the sample supernatants were combined in cassettes of up to 4 compounds, internal standard added, and samples analysed by LC-MS/MS. From a plot of In peak area ratio (compound peak area/internal standard peak area) against time, the gradient of the line was determined. Subsequently, half-life (t1/2) and intrinsic clearance (CLint) were calculated.

[2] = Liver microsomal stability, dog; format: in vitro ADME; conditions: 1 μM compound, NADPH; for half-life at 1 μM: pooled liver microsomes, pH 7.4, 0.5 mg/mL protein, read-out: Liver Microsomal Stability t1/2
Experimental: as §1, §2

[3] = Liver microsomal stability, human; format: in vitro ADME; conditions: 1 μM compound, NADPH; for half-life at 1 μM: pooled liver microsomes, pH 7.4, 0.5 mg/mL protein, read-out: Liver Microsomal Stability t1/2
Experimental: as §1, §2

Cell cytotoxicity CC50 = format: cell-based; conditions: human, Hep-G2 cells; mean of at least two experiments unless (n = 1)
[4] = Hepatocyte stability, rat; format: in vitro ADME; conditions: cryopreserved pooled hepatocytes, 3 μM compound, 60 min, read-out: Liver Hepatocyte Stability t1/2
Experimental: as §1
(§3) Cryopreserved pooled hepatocytes were purchased from a reputable commercial supplier and stored in liquid nitrogen prior to use. Williams E media supplemented with 2 mM L-glutamine and 25 mM HEPES and test compound (final substrate concentration 3 μM; final DMSO concentration 0.25%) are pre-incubated at 37° C. prior to the addition of a suspension of cryopreserved hepatocytes (final cell density 0.5 ×10^6 viable cells/mL in Williams E media supplemented with 2 mM L-glutamine and 25 mM HEPES) to initiate the reaction. The final incubation volume is 500 μL. Two control compounds were included with each species, alongside appropriate vehicle control. The reactions were stopped by transferring 50 μL of incubate to 100 μL acetonitrile containing internal standard at the appropriate time points. Samples were removed at 6 time points (0, 5, 15, 30, 45 and 60 min) over the course of a 60 min experiment. The termination plates were centrifuged at 2500 rpm at 4° C. for 30 min to precipitate the protein.
(§4) Following protein precipitation, the sample supernatants were combined in cassettes of up to 4 compounds and analysed using generic LC-MS/MS conditions. From a plot of In peak area ratio (compound peak area/internal standard peak area) against time, the gradient of the line was determined. Subsequently, half-life (t1/2) and intrinsic clearance (CLint) were calculated.

[5] = Hepatocyte stability, dog; format: in vitro ADME; conditions: cryopreserved pooled hepatocytes, 3 μM compound, 60 min, read-out: Liver Hepatocyte Stability t1/2
Experimental: as §1, §3, §4

[6] = Hepatocyte stability, human; format: in vitro ADME; conditions: cryopreserved pooled hepatocytes, 3 μM compound, 60 min, read-out: Liver Hepatocyte Stability t1/2
Experimental: as §1, §3, §4

[7] = In vivo pharmacokinetics in rats (IV and PO); set-up: species or system Male rats [Sprague Dawley (SD)]; conditions: male SD rat
Experimental: The pharmacokinetics of compounds were studied in vivo in rats at doses of 1 mg/kg (IV) and 10 mg/kg (PO).
Male rats [Sprague Dawley (SD)] surgically prepared with a jugular vein cannula were treated with experimental compounds via intravenous administration (IV; n=3; 1 mg/kg) or oral administration (PO; n=3; 10 mg/kg). Compounds were formulated as a solution in 40:60 dimethylacetamide:saline (IV administration) and a solution of 10% DMSO, 10% cremaphor in water (80%) (PO administration). […] Serial blood samples were collected via the cannula at 0.02, 0.08, 0.25, 0.5, 1, 2, 4, 6, 8 and 24 h post IV dosing of compound, and at 0.08, 0.25, 0.5, 1, 2, 4, 6, 8 and 24 h post oral dosing of compound, and plasma was prepared by centrifugation and stored immediately at −80° C. Samples were subsequently thawed, prepared for analysis by protein precipitation with acetonitrile, and analysed by tandem LCMS using electrospray ionisation using a matrix-matched calibration curve. PK parameters were calculated from the resulting data.

[8] = human respiratory syncytial virus, HepG2, 48 h
[9] = Sprague Dawley, plasma, study IV 1 mg/kg, PO 10 mg/kg

2-[2-Fluoro-4-(hydroxymethyl)phenyl]-N-[(3S)-2-oxo-5-phenyl-1,3-dihydro-1,4-benzodiazepin-3-yl]pyrazolo[1,5-a]pyrimidine-3-carboxamide [Example 2]
EC50 (RSV A2): 40 nM | CC50 (Hep-G2 cells): > 25000 nM | Liver Microsomal Stability t1/2 ([1]; rat liver microsomes, 0.5 mg/mL protein): 0.957 h | Liver Microsomal Stability t1/2 ([2]; dog liver microsomes, 0.5 mg/mL protein): 0.887 h | Liver Microsomal Stability t1/2 ([3]; human liver microsomes, 0.5 mg/mL protein): 1.95 h

CC(O)c1ccc(-c2nn3cccnc3c2C(=O)N[C@H]2N=C(c3ccccc3)c3ccccc3NC2=O)c(F)c1 (single isomer, unassigned) [Example 16-2, 2-[2-Fluoro-4-[(1R*)-1-hydroxyethyl]phenyl]-N-[(3S)-2-oxo-5-phenyl-1,3-dihydro-1,4-benzodiazepin-3-yl]pyrazolo[1,5-a]pyrimidine-3-carboxamide]
EC50 (RSV A2): 11 nM | CC50 (Hep-G2 cells): > 2500 nM

CC(O)c1ccc(-c2nn3cccnc3c2C(=O)N[C@H]2N=C(c3ccccc3)c3cccc(F)c3NC2=O)c(F)c1 (single isomer, unassigned) [Example 17-2, 2-[2-Fluoro-4-[(1R*)-1-hydroxyethyl]phenyl]-N-[(3S)-9-fluoro-2-oxo-5-phenyl-1,3-dihydro-1,4-benzodiazepin-3-yl]pyrazolo[1,5-a]pyrimidine-3-carboxamide]
EC50 (RSV A2): 7.8 nM | CC50 (Hep-G2 cells): > 2500 nM

O=C(N[C@H]1N=C(c2ccccc2)c2cccc(F)c2NC1=O)c1c(-c2cnn(CC(F)(F)F)c2)nn2cccnc12 [Example 3, N-[(3S)-9-fluoro-2-oxo-5-phenyl-1,3-dihydro-1,4-benzodiazepin-3-yl]-2-[1-(2,2,2-trifluoroethyl)pyrazol-4-yl]pyrazolo[1,5-a]pyrimidine-3-carboxamide]
EC50 (RSV A2; [8]): 66 nM | CC50 (Cell cytotoxicity CC50): > 25000 nM | half-life at 1 μM [1]: 3.48 h | half-life at 1 μM [2]: 1.78 h | half-life at 1 μM [3]: > 2.33 h

O=C(N[C@H]1N=C(c2ccccc2)c2cccc(F)c2NC1=O)c1c(-c2cnn(C3CCOCC3)c2)nn2cccnc12 [Example 6, N-[(3S)-9-fluoro-2-oxo-5-phenyl-1,3-dihydro-1,4-benzodiazepin-3-yl]-2-[1-(oxan-4-yl)pyrazol-4-yl]pyrazolo[1,5-a]pyrimidine-3-carboxamide]
EC50 (RSV A2; [8]): 49 nM | CC50 (Cell cytotoxicity CC50): > 25000 nM | half-life at 1 μM [1]: 1.42 h | half-life at 1 μM [2]: 2.07 h | half-life at 1 μM [3]: 4.32 h

CS(=O)(=O)c1ccc(-c2nn3cccnc3c2C(=O)N[C@H]2N=C(c3ccccc3)c3cccc(F)c3NC2=O)c(F)c1 [Example 7, 2-(2-Fluoro-4-methylsulfonylphenyl)-N-[(3S)-9-fluoro-2-oxo-5-phenyl-1,3-dihydro-1,4-benzodiazepin-3-yl]pyrazolo[1,5-a]pyrimidine-3-carboxamide]
EC50 (RSV A2; [8]): 9 nM | CC50 (Cell cytotoxicity CC50): > 25000 nM | half-life at 3 μM [4]: 85.7 h | half-life at 3 μM [5]: 0.95 h | half-life at 3 μM [6]: 6.28 h | half-life ([7]; Sprague Dawley, plasma, IV 1 mg/kg, read-out: IV t1/2 (converted)): 1.6 h | half-life ([7]; Sprague Dawley, plasma, PO 10 mg/kg, read-out: PO t1/2 (converted)): 2.5 h | Vd [7, 9]: 1.4 L/kg | clearance [7, 9]: 13.1 mL/min/kg | Cmax ([7]; Sprague Dawley, plasma, study IV 1 mg/kg, PO 10 mg/kg, route not given): 2340 ng/mL | AUC(0-t) ([7]; Sprague Dawley, PO 10 mg/kg, plasma, read-out: PO AUClast): 24800 ng·h/mL | F ([7]; PO 10 mg/kg vs IV 1 mg/kg): 188%

CCn1cc(-c2nn3cccnc3c2C(=O)N[C@H]2N=C(c3ccccc3)c3cccc(F)c3NC2=O)cn1 [Example 13, 2-(1-Ethylpyrazol-4-yl)-N-[(3S)-9-fluoro-2-oxo-5-phenyl-1,3-dihydro-1,4-benzodiazepin-3-yl]pyrazolo[1,5-a]pyrimidine-3-carboxamide]
EC50 (RSV A2; [8]): 58 nM | CC50 (Cell cytotoxicity CC50): > 25000 nM | half-life at 1 μM [1]: 7.52 h | half-life at 1 μM [2]: 6.82 h | half-life at 1 μM [3]: 8.93 h

CC(C)(O)c1ccc(-c2nn3cccnc3c2C(=O)N[C@H]2N=C(c3ccccc3)c3cccc(F)c3NC2=O)c(F)c1 [Example 19, 2-[2-Fluoro-4-(2-hydroxypropan-2-yl)phenyl]-N-[(3S)-9-fluoro-2-oxo-5-phenyl-1,3-dihydro-1,4-benzodiazepin-3-yl]pyrazolo[1,5-a]pyrimidine-3-carboxamide]
EC50 (RSV A2; [8]): 8.5 nM | CC50 (Cell cytotoxicity CC50): > 25000 nM | half-life at 1 μM [1]: 2.43 h | half-life at 1 μM [2]: 1.22 h | half-life at 1 μM [3]: 2.82 h

NCC(=O)OCc1ccc(-c2nn3cccnc3c2C(=O)N[C@H]2N=C(c3ccccc3)c3ccccc3NC2=O)c(F)c1 [Example 29, 3-Fluoro-4-(3-{[(3S)-2-oxo-5-phenyl-1,3-dihydro-1,4-benzodiazepin-3-yl]carbamoyl}pyrazolo[1,5-a]pyrimidin-2-yl)phenyl]methyl aminoacetate hydrochloride]
EC50 (RSV A2): 49 nM | CC50 (Hep-G2 cells): > 25000 nM
